# According to ChEMBL document CHEMBL1201862, “PubChem BioAssay data set” (2004):
#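 Following 48 hours of exposure in 96-well plates, responses at five concentrations were used to interpolate endpoints linearly. GI50 is the concentration that inhibits growth by half.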 Calls of active or inactive are those of the source. Rule as the data show it: active = GI50 up to about 1.1 µM and inactive = higher.
# Columns and labels:
# Experiment in all cases: growth of human tumour cells (NCI), 48 h
# A498 = test system: A498
# A549 = test system: A549
# CAKI-1 = test system: CAKI-1
# CCRF-CEM = test system: CCRF-CEM
# COLO 205 = test system: COLO 205
# DLD-1 = test system: DLD-1
# DMS-114 = test system: DMS-114
# DMS-273 = test system: DMS-273
# EKVX = test system: EKVX
# HCC 2998 = test system: HCC 2998
# HCT-116 = test system: HCT-116
# HCT-15 = test system: HCT-15
# HL-60 = test system: HL-60
# HOP-18 = test system: HOP-18
# HOP-62 = test system: HOP-62
# HOP-92 = test system: HOP-92
# HT-29 = test system: HT-29
# IGROV-1 = test system: IGROV-1
# K562 = test system: K562
# KM-20L2 = test system: KM-20L2
# KM12 = test system: KM12
# LOX IMVI = test system: LOX IMVI
# M19-MEL = test system: M19-MEL
# MCF7 = test system: MCF7
# MOLT-4 = test system: MOLT-4
# Malme-3M = test system: Malme-3M
# NCI-H226 = test system: NCI-H226
# NCI-H23 = test system: NCI-H23
# NCI-H460 = test system: NCI-H460
# NCI-H522 = test system: NCI-H522
# NCI/ADR-RES = test system: NCI/ADR-RES
# OVCAR-3 = test system: OVCAR-3
# OVCAR-4 = test system: OVCAR-4
# OVCAR-5 = test system: OVCAR-5
# OVCAR-8 = test system: OVCAR-8
# RPMI-8226 = test system: RPMI-8226
# RXF 393 = test system: RXF 393
# SF-268 = test system: SF-268
# SF-295 = test system: SF-295
# SF-539 = test system: SF-539
# SK-MEL-28 = test system: SK-MEL-28
# SK-MEL-2 = test system: SK-MEL-2
# SK-MEL-5 = test system: SK-MEL-5
# SK-OV-3 = test system: SK-OV-3
# SN12C = test system: SN12C
# SNB-19 = test system: SNB-19
# SNB-75 = test system: SNB-75
# SNB-78 = test system: SNB-78
# SW-620 = test system: SW-620
# U-251 = test system: U-251
# UACC-257 = test system: UACC-257
# UACC-62 = test system: UACC-62
# UO-31 = test system: UO-31
# XF498 = test system: XF498
smiles,measurement,setting,value
CC(C)=CC(=O)OC1C2C(C)C(=O)OC2C(O)C(C)C2C=CC(=O)C21C (stereo not drawn),GI50,A498,2.05 µM (inactive)
same,GI50,A549,8.65 µM (inactive)
same,GI50,CAKI-1,3.24 µM (inactive)
same,GI50,CCRF-CEM,0.802 µM (active)
same,GI50,COLO 205,1.87 µM (inactive)
same,GI50,DLD-1,1.14 µM (inactive)
same,GI50,DMS-114,2.58 µM (inactive)
same,GI50,DMS-273,4.25 µM (inactive)
same,GI50,EKVX,2.92 µM (inactive)
same,GI50,HCC 2998,5.47 µM (inactive)
same,GI50,HCT-116,1.66 µM (inactive)
same,GI50,HCT-15,2 µM
same,GI50,HL-60,0.826 µM (active)
same,GI50,HOP-18,6.67 µM (inactive)
same,GI50,HOP-62,8.02 µM (inactive)
same,GI50,HOP-92,4.09 µM (inactive)
same,GI50,HT-29,3.21 µM (inactive)
same,GI50,IGROV-1,3.33 µM (inactive)
same,GI50,K562,2.14 µM (inactive)
same,GI50,KM-20L2,3.42 µM (inactive)
same,GI50,KM12,4.03 µM (inactive)
same,GI50,LOX IMVI,0.918 µM (active)
same,GI50,M19-MEL,3.01 µM (inactive)
same,GI50,MCF7,2.43 µM (inactive)
same,GI50,MOLT-4,1.23 µM (inactive)
same,GI50,Malme-3M,3.58 µM (inactive)
same,GI50,NCI-H226,5.22 µM (inactive)
same,GI50,NCI-H23,2.71 µM (inactive)
same,GI50,NCI-H460,1.96 µM (inactive)
same,GI50,NCI-H522,0.569 µM (active)
same,GI50,NCI/ADR-RES,4.3 µM (inactive)
same,GI50,OVCAR-3,2.75 µM (inactive)
same,GI50,OVCAR-4,3.13 µM (inactive)
same,GI50,OVCAR-5,7.83 µM (inactive)
same,GI50,OVCAR-8,1.79 µM (inactive)
same,GI50,RPMI-8226,1.48 µM (inactive)
same,GI50,RXF 393,1.28 µM (inactive)
same,GI50,SF-268,1.57 µM (inactive)
same,GI50,SF-295,6.14 µM (inactive)
same,GI50,SF-539,3.61 µM (inactive)
same,GI50,SK-MEL-28,1.34 µM (inactive)
same,GI50,SK-MEL-2,4.15 µM (inactive)
same,GI50,SK-MEL-5,3.32 µM (inactive)
same,GI50,SK-OV-3,7.23 µM (inactive)
same,GI50,SN12C,3.69 µM (inactive)
same,GI50,SNB-19,7.38 µM (inactive)
same,GI50,SNB-75,2.72 µM (inactive)
same,GI50,SNB-78,3.24 µM (inactive)
same,GI50,SW-620,1.68 µM (inactive)
same,GI50,U-251,4.06 µM (inactive)
same,GI50,UACC-257,3.94 µM (inactive)
same,GI50,UACC-62,1.47 µM (inactive)
same,GI50,UO-31,6.03 µM (inactive)
same,GI50,XF498,5.08 µM (inactive)
CC(C)CCCCCCCCCCCCC(=O)NCC(=O)NC1C(C)OC(Nc2ncnc3c2ncn3C)C(O)C1O (stereo not drawn),GI50,A498,4.15 µM (inactive)
same,GI50,A549,8.28 µM (inactive)
same,GI50,CAKI-1,0.805 µM (active)
same,GI50,CCRF-CEM,> 100 µM (inactive)
same,GI50,COLO 205,3.81 µM (inactive)
same,GI50,DLD-1,12.1 µM (inactive)
same,GI50,DMS-114,7.82 µM (inactive)
same,GI50,DMS-273,1.81 µM (inactive)
same,GI50,EKVX,> 100 µM (inactive)
same,GI50,HCC 2998,1.28 µM (inactive)
same,GI50,HCT-116,1.54 µM (inactive)
same,GI50,HCT-15,> 100 µM
same,GI50,HL-60,0.485 µM (active)
same,GI50,HOP-18,2.48 µM (inactive)
same,GI50,HOP-62,2.21 µM (inactive)
same,GI50,HOP-92,2.41 µM (inactive)
same,GI50,HT-29,4.2 µM (inactive)
same,GI50,IGROV-1,2.94 µM (inactive)
same,GI50,K562,> 73.3 µM (inactive)
same,GI50,KM-20L2,4.02 µM (inactive)
same,GI50,KM12,5.47 µM (inactive)
same,GI50,LOX IMVI,5.3 µM (inactive)
same,GI50,M19-MEL,11.4 µM (inactive)
same,GI50,MCF7,> 100 µM (inactive)
same,GI50,MOLT-4,> 100 µM (inactive)
same,GI50,Malme-3M,2.32 µM (inactive)
same,GI50,NCI-H226,2.16 µM (inactive)
same,GI50,NCI-H23,9.42 µM (inactive)
same,GI50,NCI-H460,3.09 µM (inactive)
same,GI50,NCI-H522,6.7 µM (inactive)
same,GI50,NCI/ADR-RES,> 100 µM (inactive)
same,GI50,OVCAR-3,3.52 µM (inactive)
same,GI50,OVCAR-4,6.41 µM (inactive)
same,GI50,OVCAR-5,7.33 µM (inactive)
same,GI50,OVCAR-8,4.27 µM (inactive)
same,GI50,RPMI-8226,2.43 µM (inactive)
same,GI50,RXF 393,2.89 µM (inactive)
same,GI50,SF-268,3.21 µM (inactive)
same,GI50,SF-295,6.4 µM (inactive)
same,GI50,SF-539,2.82 µM (inactive)
same,GI50,SK-MEL-28,> 100 µM (inactive)
same,GI50,SK-MEL-2,8.34 µM (inactive)
same,GI50,SK-MEL-5,> 74.3 µM (inactive)
same,GI50,SK-OV-3,3.1 µM (inactive)
same,GI50,SN12C,3.5 µM (inactive)
same,GI50,SNB-19,2.88 µM (inactive)
same,GI50,SNB-75,2.33 µM (inactive)
same,GI50,SNB-78,4.72 µM (inactive)
same,GI50,SW-620,5.37 µM (inactive)
same,GI50,U-251,1.21 µM (inactive)
same,GI50,UACC-257,19.4 µM (inactive)
same,GI50,UACC-62,3.18 µM (inactive)
same,GI50,UO-31,1.9 µM (inactive)
same,GI50,XF498,3.56 µM (inactive)
